Measurements: PubChem BioAssay AID328 (DTP/NCI, 2004)
“And” between values parts separate entries of the source, which are not always exact repeats. Equal values may be shown once. Toxic doses and inconclusive results are not listed. The calls were made as follows: active = survival T/C of 150% or more; inactive = T/C below 125% in these data.

Test system: BDF1 mice, P388 leukemia ip, median survival T/C
Experiment: NCI In Vivo Anticancer Drug Screen. Data for tumor model P388 Leukemia (intraperitoneal) in B6D2F1 (BDF1) mice
Settings: endpoint: median survival time, higher = longer survival
Summary of the method: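 Steps: implant the tumour, treat one group with compound and another with vehicle, record survival, then divide treated by control.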

[1] = dose: 12.5 mg/kg/injection, schedule: Q01DX009 (ip), vehicle: saline with Tween-80
[2] = dose: 25.0 mg/kg/injection, schedule: Q01DX009 (ip), vehicle: saline with Tween-80
[3] = dose: 50.0 mg/kg/injection, schedule: Q01DX009 (ip), vehicle: saline with Tween-80
[4] = dose: 200.0 mg/kg/injection, schedule: Q01DX009 (ip), vehicle: saline with Tween-80
[5] = dose: 100.0 mg/kg/injection, schedule: Q01DX009 (ip), vehicle: saline with Tween-80
[6] = dose: 100.0 mg/kg/injection, schedule: Q01DX009 (ip), vehicle: Klucel (hydroxypropylcellulose) (HPC)
[7] = dose: 100.0 mg/kg/injection, schedule: Q04DX003 (ip), vehicle: Klucel (hydroxypropylcellulose) (HPC)
[8] = dose: 150.0 mg/kg/injection, schedule: Q01DX009 (ip), vehicle: Klucel (hydroxypropylcellulose) (HPC)
[9] = dose: 200.0 mg/kg/injection, schedule: Q01DX009 (ip), vehicle: Klucel (hydroxypropylcellulose) (HPC)
[10] = dose: 200.0 mg/kg/injection, schedule: Q04DX003 (ip), vehicle: Klucel (hydroxypropylcellulose) (HPC)
[11] = dose: 400.0 mg/kg/injection, schedule: Q04DX003 (ip), vehicle: Klucel (hydroxypropylcellulose) (HPC)
[12] = dose: 25.0 mg/kg/injection, schedule: Q01DX009 (ip), vehicle: Klucel (hydroxypropylcellulose) (HPC)
[13] = dose: 50.0 mg/kg/injection, schedule: Q01DX009 (ip), vehicle: Klucel (hydroxypropylcellulose) (HPC)
[14] = dose: 6.25 mg/kg/injection, schedule: Q01DX009 (ip), vehicle: Klucel (hydroxypropylcellulose) (HPC)
[15] = dose: 12.5 mg/kg/injection, schedule: Q01DX009 (ip), vehicle: Klucel (hydroxypropylcellulose) (HPC)
[16] = dose: 100.0 mg/kg/injection, schedule: Q04DX003 (ip), vehicle: saline with Tween-80
[17] = dose: 200.0 mg/kg/injection, schedule: Q04DX003 (ip), vehicle: saline with Tween-80
[18] = dose: 400.0 mg/kg/injection, schedule: Q04DX003 (ip), vehicle: saline with Tween-80
[19] = dose: 50.0 mg/kg/injection, schedule: Q01DX009 (ip), vehicle: saline

Measured: T/C

CN(C)c1ccc(/C=C/c2ccccn2)cc1
inactive: [1] 95 % of control | [2] 95 % of control

O=C(O)COc1ccc(Cl)cc1Cl
inactive: [3] 118 % of control | [4] 90 % of control

CCOC(=O)N(C)C(C)Cc1ccccc1 (stereo not drawn)
inactive: [3] 105 % of control | [5] 118 % of control

c1ccc(CSSCc2ccccc2)cc1
inactive: dose: 75.0 mg/kg/injection, schedule: Q01DX009 (ip), vehicle: Klucel (hydroxypropylcellulose) (HPC) 104 % of control | [6] 90 % of control | [7] 100 % of control | [8] 100 % of control | [9] 86 % of control | [10] 95 % of control | dose: 300.0 mg/kg/injection, schedule: Q01DX009 (ip), vehicle: Klucel (hydroxypropylcellulose) (HPC) 90 % of control | [11] 95 % of control

Cc1c(C)c(CC#N)c(C)c(C)c1CC#N
inactive: [12] 91 % of control | [13] 91 % of control | [6] 87 % of control | [7] 92 % of control | [9] 91 % of control

O=C(C=P(c1ccccc1)(c1ccccc1)c1ccccc1)CCl
inactive: [14] 91 % of control | dose: 6.25 mg/kg/injection, schedule: Q04DX003 (ip), vehicle: Klucel (hydroxypropylcellulose) (HPC) 100 % of control | [15] 91 % of control | dose: 12.5 mg/kg/injection, schedule: Q04DX003 (ip), vehicle: Klucel (hydroxypropylcellulose) (HPC) 100 % of control | [12] 100 % of control | dose: 25.0 mg/kg/injection, schedule: Q04DX003 (ip), vehicle: Klucel (hydroxypropylcellulose) (HPC) 100 % of control

CC(=O)OCc1c(COC(C)=O)c(-c2ccc(Cl)c(Cl)c2)n2c1CCC2
inactive: [15] 114 % of control

O=C1C=CC(=O)N1CCc1ccccc1
inactive: dose: 5.0 mg/kg/injection, schedule: Q01DX009 (ip), vehicle: saline with Tween-80 100 % of control | dose: 10.0 mg/kg/injection, schedule: Q01DX009 (ip), vehicle: saline with Tween-80 92 % of control | dose: 10.0 mg/kg/injection, schedule: Q04DX003 (ip), vehicle: saline with Tween-80 108 % of control | dose: 20.0 mg/kg/injection, schedule: Q01DX009 (ip), vehicle: saline with Tween-80 92 % of control | dose: 20.0 mg/kg/injection, schedule: Q04DX003 (ip), vehicle: saline with Tween-80 108 % of control

CCCC[N+](CCCC)(CCCC)CCCC.Cc1ccc([SH2+])c([SH2+])c1.Cc1ccc([SH2+])c([SH2+])c1.[Fe+3]
inactive: dose: 45.0 mg/kg/injection, schedule: Q04DX003 (ip), vehicle: Klucel (hydroxypropylcellulose) (HPC) 109 % of control | dose: 65.0 mg/kg/injection, schedule: Q04DX003 (ip), vehicle: Klucel (hydroxypropylcellulose) (HPC) 118 % of control | dose: 100.0 mg/kg/injection, schedule: Q01DX001 (ip), vehicle: other 112 % of control | dose: 150.0 mg/kg/injection, schedule: Q04DX003 (ip), vehicle: Klucel (hydroxypropylcellulose) (HPC) 118 % of control | dose: 200.0 mg/kg/injection, schedule: Q01DX001 (ip), vehicle: other 112 % of control | [10] 90 % of control and 120 % of control | dose: 400.0 mg/kg/injection, schedule: Q01DX001 (ip), vehicle: other 108 % of control | [11] 120 % of control

C=C=[CH][Sn]([c]1ccccc1)([c]1ccccc1)[c]1ccccc1
inactive: [14] 92 % of control and 108 % of control | [15] 96 % of control and 104 % of control | [12] 107 % of control and 112 % of control and 115 % of control

Cc1ccc2oc(=O)c(-c3cc4oc(=O)sc4cc3O)c(O)c2c1
inactive: dose: 100.0 mg/kg/injection, schedule: Q01DX001 (ip), vehicle: Klucel (hydroxypropylcellulose) (HPC) 100 % of control | dose: 200.0 mg/kg/injection, schedule: Q01DX001 (ip), vehicle: Klucel (hydroxypropylcellulose) (HPC) 100 % of control | dose: 400.0 mg/kg/injection, schedule: Q01DX001 (ip), vehicle: Klucel (hydroxypropylcellulose) (HPC) 106 % of control

C(=C/c1ccc(/C=C/c2ccccc2)cc1)/c1ccccc1
inactive: dose: 65.0 mg/kg/injection, schedule: Q01DX009 (ip), vehicle: Klucel (hydroxypropylcellulose) (HPC) 100 % of control | dose: 66.7 mg/kg/injection, schedule: Q01DX009 (ip), vehicle: Klucel (hydroxypropylcellulose) (HPC) 111 % of control | [6] 94 % of control and 95 % of control | [7] 90 % of control | [8] 100 % of control and 116 % of control | [10] 110 % of control | dose: 400.0 mg/kg/injection, schedule: Q01DX009 (ip), vehicle: Klucel (hydroxypropylcellulose) (HPC) 113 % of control | [11] 105 % of control

Cc1cccc2c1C(=O)OC2(C)c1cccc2ccccc12 (stereo not drawn)
inactive: dose: 50.0 mg/kg/injection, schedule: Q04DX003 (ip), vehicle: saline with Tween-80 99 % of control | [16] 96 % of control | [17] 118 % of control | [18] 95 % of control

NC1=NC(c2ccc(Cl)cc2)N(c2ccc(S(=O)(=O)Nc3ncccn3)cc2)C(N)=N1 (stereo not drawn)
inactive: dose: 25.0 mg/kg/injection, schedule: Q04DX003 (ip), vehicle: saline sonified 104 % of control | dose: 50.0 mg/kg/injection, schedule: Q04DX003 (ip), vehicle: saline sonified 104 % of control | dose: 100.0 mg/kg/injection, schedule: Q04DX003 (ip), vehicle: saline sonified 95 % of control

CC12CCC(Cl)CC1=CCC1C2CCC2(C)C1CCCN2CCCl (stereo not drawn)
inactive: dose: 12.5 mg/kg/injection, schedule: Q01DX001 (ip), vehicle: saline with Tween-80 105 % of control | dose: 12.5 mg/kg/injection, schedule: Q01DX001 (ip), vehicle: saline 102 % of control | dose: 25.0 mg/kg/injection, schedule: Q01DX001 (ip), vehicle: saline with Tween-80 113 % of control | dose: 25.0 mg/kg/injection, schedule: Q01DX001 (ip), vehicle: saline 117 % of control

CCOC(=O)C(C#N)N=Nc1ccccc1 (stereo not drawn)
inactive: [16] 90 % of control | [17] 95 % of control | [18] 90 % of control

O=C(NC(=S)N1CCOCC1)c1ccccc1
inactive: [3] 100 % of control | [5] 90 % of control | [4] 100 % of control | dose: 400.0 mg/kg/injection, schedule: Q01DX009 (ip), vehicle: saline with Tween-80 97 % of control

CCOC(=O)C(Br)C(=O)OCC
inactive: dose: 6.25 mg/kg/injection, schedule: Q01DX009 (ip), vehicle: saline 100 % of control | dose: 12.5 mg/kg/injection, schedule: Q01DX009 (ip), vehicle: saline 100 % of control | dose: 12.5 mg/kg/injection, schedule: Q04DX003 (ip), vehicle: saline 110 % of control | dose: 25.0 mg/kg/injection, schedule: Q01DX009 (ip), vehicle: saline 95 % of control | dose: 25.0 mg/kg/injection, schedule: Q04DX003 (ip), vehicle: saline 110 % of control | [19] 86 % of control | dose: 50.0 mg/kg/injection, schedule: Q04DX003 (ip), vehicle: saline 105 % of control

O=C(Nc1cccc2c1C(=O)c1cccc(NC(=O)c3ccc(C(=O)Nc4cccc5c4C(=O)c4cccc(NC(=O)c6ccccc6)c4C5=O)cc3)c1C2=O)c1ccccc1
inactive: dose: 6.25 mg/kg/injection, schedule: Q01DX009 (ip), vehicle: saline with Tween-80 92 % of control | [1] 107 % of control | [2] 111 % of control

COc1cccc2c1C(=O)c1c(O)c3c(c(O)c1C2=O)C[C@@](O)(C(=O)CO)C[C@@H]3OC1CC(NC(C)=O)C(O)C(C)O1 (stereo partly drawn)
inactive: dose: 25.0 mg/kg/injection, schedule: Q04DX009 (ip), vehicle: other 119 % of control | dose: 100.0 mg/kg/injection, schedule: Q04DX009 (ip), vehicle: other 119 % of control | dose: 200.0 mg/kg/injection, schedule: Q04DX009 (ip), vehicle: other 119 % of control

C#CC[N+]12CN3CN(CN(C3)C1)C2
inactive: [19] 123 % of control

C[P+]1(C)CCc2c1ccc1ccccc21
inactive: [1] 104 % of control | [2] 100 % of control | [3] 104 % of control

Cc1nc(N(C)C)c2cnn(-c3ccccc3)c2n1
inactive: [12] 105 % of control | [13] 105 % of control | [6] 105 % of control

CCN(CC)CCC1(C#N)Cc2ccccc2N(CC)c2ccccc21 (stereo not drawn)
inactive: [5] 107 % of control | [4] 113 % of control
